Converted amounts (≈) assume the structure as drawn.
How the values were obtained:
[1] = Microsomal stability in human liver microsomes assessed as intrinsic clearance at 1 uM measured up to 60 mins by HPLC-MS/MS analysis; assay type: ADME, Microsome; conditions: read-out: CLH
[2] = Stability in human plasma assessed as half life at 5 uM measured up to 180 mins by HPLC-MS/MS analysis; assay type: ADME, cell-free
[3] = target: Muscarinic acetylcholine receptor M3 (Rattus norvegicus, UniProt P08483); assay: Antagonist activity at muscarinic M3 receptor in rat trachea assessed as inhibition of carbachol-induced contraction; assay type: functional, tissue-based
[4] = Toxicity in ferret assessed as induction of emesis at 1 umol/kg, IT measured for 4 hrs; parameters: species or system Mustela putorius furo; conditions: in vivo, inhaled_or_intranasal, dose 1 µmol/kg
[5] = Toxicity in ferret assessed as nausea-like score at 10 umol/kg, IT observed for 4 hrs (Rvb= 12.83+/-5.10); parameters: species or system Mustela putorius furo; conditions: in vivo, inhaled_or_intranasal, dose 10 µmol/kg
[6] = target: Muscarinic acetylcholine receptor M3 (Homo sapiens, UniProt P20309); assay: Displacement of [3H]-N-methyl Scopolamine Chloride from human M3 receptor membranes incubated for 2 hrs by scintillation counting analysis; assay type: cell membranes, Cell membrane
Rattus norvegicus [7] = assay: Antiinflammatory activity in ovalbumin induced Brown Norway rat airway inflammation model assessed as reduction in eosinophil counts in bronchoalveolar lavage at 1 umol/kg, INH for 3 consecutive days and measured after 24 hrs post last dose; assay type: functional; parameters: scale not given: the % may be the effect or the level left; conditions: dose 1 µmol/kg; time 3 day
Cavia porcellus [8] = assay: Bronchodilatory activity in Dunkin Hartley guinea pig model assessed as inhibition of acetylcholine-induced bronchoconstriction at 3 nmol/kg, IT measured after 16 hrs by Konzett-Roessler methodology relative to control; assay type: functional; conditions: 0.003 umol/kg
[9] = Toxicity in ferret assessed as nausea-like score at 1 umol/kg, IT observed for 4 hrs (Rvb= 12.83+/-5.10); parameters: species or system Mustela putorius furo; conditions: in vivo, inhaled_or_intranasal, dose 1 µmol/kg
[10] = target: 3',5'-cyclic-AMP phosphodiesterase 4B (Homo sapiens, UniProt Q07343); assay: Inhibition of human recombinant PDE4B2 assessed as […] in cAMP level incubated for 2 hrs by LANCE Ultra cAMP TR-FRET assay
[11] = Plasma protein binding in human assessed as bound fraction at 0.5 to 2 uM measured after 30 mins by HPLC-MS/MS analysis; assay type: ADME, cell-free; conditions: dose 0.5-2 µM, read-out: PPB (converted)
[12] = Antiinflammatory activity in human PBMCs assessed as inhibition of LPS-induced TNF-alpha release measured after 18 hrs by ELISA; assay type: functional, tissue-based, PBMC; conditions: pbmc
[13] = Kinetic solubility of compound in PBS at pH 7.4 […] incubated for 2 hrs by LC-UV and LC-MS analysis; assay type: physicochemical; conditions: read-out: Kinetic_solubility
Rattus norvegicus [14] = assay: Antiinflammatory activity in ovalbumin induced Brown Norway rat airway inflammation model assessed as reduction in eosinophil counts in bronchoalveolar lavage administered via inhalation for 3 consecutive days and measured after 24 hrs post last dose; assay type: functional; conditions: inhaled or nasal
[15] = Microsomal stability in rat liver microsomes assessed as intrinsic clearance at 1 uM measured up to 60 mins by HPLC-MS/MS analysis; assay type: ADME, Microsome; conditions: read-out: CLH
[16] = Permeability across apical to basolateral side in human Caco2 cells at 10 uM measured after 1 hr by LC-MS/MS analysis; assay type: ADME, cell-based; conditions: Caco-2
[17] = Stability in rat plasma assessed as half life at 5 uM measured up to 180 mins by HPLC-MS/MS analysis; assay type: ADME, cell-free
[18] = target: T1, Muscarinic acetylcholine receptor M2 (Homo sapiens, UniProt P08172); assay: Displacement of [3H]-N-methyl Scopolamine Chloride from human M2 receptor membranes incubated for 2 hrs by scintillation counting analysis; assay type: cell membranes, Cell membrane
T1 sequence (P08172 whole entry): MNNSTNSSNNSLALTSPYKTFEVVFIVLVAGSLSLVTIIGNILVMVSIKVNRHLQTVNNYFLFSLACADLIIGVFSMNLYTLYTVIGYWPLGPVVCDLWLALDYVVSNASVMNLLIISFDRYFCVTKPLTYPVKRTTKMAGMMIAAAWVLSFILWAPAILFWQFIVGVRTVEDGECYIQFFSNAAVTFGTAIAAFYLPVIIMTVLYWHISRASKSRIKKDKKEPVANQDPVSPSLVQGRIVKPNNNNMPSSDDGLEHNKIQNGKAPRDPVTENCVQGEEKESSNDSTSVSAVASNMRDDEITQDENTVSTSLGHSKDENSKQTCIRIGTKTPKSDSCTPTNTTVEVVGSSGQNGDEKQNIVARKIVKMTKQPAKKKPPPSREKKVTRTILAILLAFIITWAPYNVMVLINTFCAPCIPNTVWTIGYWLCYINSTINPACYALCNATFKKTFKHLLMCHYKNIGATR

Cavia porcellus [19] = assay: Bronchodilatory activity in Dunkin Hartley guinea pig model assessed as inhibition of acetylcholine-induced bronchoconstriction at 3 nmol/kg, IT measured after 1 hr by Konzett-Roessler methodology relative to control; assay type: functional; conditions: 0.003 umol/kg, 1 h
[20] = Plasma protein binding in rat assessed as bound fraction at 0.5 to 2 uM measured after 30 mins by HPLC-MS/MS analysis; assay type: ADME, cell-free; conditions: dose 0.5-2 µM, read-out: PPB (converted)
[21] = Antagonist activity at muscarinic M3 receptor in guinea pig trachea assessed as inhibition of carbachol-induced contraction; assay type: tissue-based, Cavia porcellus
[22] = Toxicity in ferret assessed as induction of emesis at 10 umol/kg, IT measured for 4 hrs; parameters: species or system Mustela putorius furo; conditions: in vivo, inhaled_or_intranasal, dose 10 µmol/kg
Cavia porcellus [23] = assay: Bronchodilatory activity in IT dosed Dunkin Hartley guinea pig model assessed as inhibition of acetylcholine-induced bronchoconstriction measured after 1 hr by Konzett-Roessler methodology; assay type: functional; conditions: 1 h

Muscarinic acetylcholine receptor M3 (Rattus norvegicus, UniProt P08483), sequence (P08483 whole entry): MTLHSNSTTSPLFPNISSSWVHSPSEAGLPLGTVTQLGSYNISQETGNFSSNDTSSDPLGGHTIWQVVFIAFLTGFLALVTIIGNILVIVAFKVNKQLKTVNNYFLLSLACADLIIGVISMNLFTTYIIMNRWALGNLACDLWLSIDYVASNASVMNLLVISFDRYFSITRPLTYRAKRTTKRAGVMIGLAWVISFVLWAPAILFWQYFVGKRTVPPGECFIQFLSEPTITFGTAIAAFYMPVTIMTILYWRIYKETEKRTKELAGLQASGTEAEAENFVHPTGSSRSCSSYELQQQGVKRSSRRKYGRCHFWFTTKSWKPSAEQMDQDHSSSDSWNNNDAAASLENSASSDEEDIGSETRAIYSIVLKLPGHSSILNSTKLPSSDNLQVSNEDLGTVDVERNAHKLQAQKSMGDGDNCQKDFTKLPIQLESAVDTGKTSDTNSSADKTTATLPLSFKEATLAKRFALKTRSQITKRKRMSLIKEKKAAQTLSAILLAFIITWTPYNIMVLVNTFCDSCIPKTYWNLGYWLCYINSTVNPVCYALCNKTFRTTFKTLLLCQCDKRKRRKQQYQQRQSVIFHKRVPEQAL
3',5'-cyclic-AMP phosphodiesterase 4B, sequence (Q07343 whole entry): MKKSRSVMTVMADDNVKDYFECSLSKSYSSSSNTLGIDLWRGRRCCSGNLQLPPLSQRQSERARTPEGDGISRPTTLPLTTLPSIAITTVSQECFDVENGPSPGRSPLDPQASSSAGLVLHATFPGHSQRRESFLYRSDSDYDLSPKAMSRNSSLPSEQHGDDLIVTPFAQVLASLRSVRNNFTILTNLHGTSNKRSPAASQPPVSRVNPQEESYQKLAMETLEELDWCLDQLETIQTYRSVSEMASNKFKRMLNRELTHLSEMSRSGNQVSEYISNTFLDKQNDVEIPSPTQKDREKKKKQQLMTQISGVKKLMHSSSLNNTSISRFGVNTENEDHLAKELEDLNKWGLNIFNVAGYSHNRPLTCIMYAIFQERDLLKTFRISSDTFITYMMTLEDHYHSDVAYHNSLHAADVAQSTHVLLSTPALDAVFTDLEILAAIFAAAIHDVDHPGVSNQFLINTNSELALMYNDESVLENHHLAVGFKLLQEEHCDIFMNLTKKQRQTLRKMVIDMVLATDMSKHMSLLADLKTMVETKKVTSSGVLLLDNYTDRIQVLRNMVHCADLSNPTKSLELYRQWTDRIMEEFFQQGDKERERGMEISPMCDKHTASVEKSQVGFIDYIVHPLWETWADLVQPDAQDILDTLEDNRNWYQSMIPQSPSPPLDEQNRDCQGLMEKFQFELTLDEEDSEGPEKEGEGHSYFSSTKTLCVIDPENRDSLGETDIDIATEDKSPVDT
Muscarinic acetylcholine receptor M3 (Homo sapiens, UniProt P20309), sequence (P20309 whole entry): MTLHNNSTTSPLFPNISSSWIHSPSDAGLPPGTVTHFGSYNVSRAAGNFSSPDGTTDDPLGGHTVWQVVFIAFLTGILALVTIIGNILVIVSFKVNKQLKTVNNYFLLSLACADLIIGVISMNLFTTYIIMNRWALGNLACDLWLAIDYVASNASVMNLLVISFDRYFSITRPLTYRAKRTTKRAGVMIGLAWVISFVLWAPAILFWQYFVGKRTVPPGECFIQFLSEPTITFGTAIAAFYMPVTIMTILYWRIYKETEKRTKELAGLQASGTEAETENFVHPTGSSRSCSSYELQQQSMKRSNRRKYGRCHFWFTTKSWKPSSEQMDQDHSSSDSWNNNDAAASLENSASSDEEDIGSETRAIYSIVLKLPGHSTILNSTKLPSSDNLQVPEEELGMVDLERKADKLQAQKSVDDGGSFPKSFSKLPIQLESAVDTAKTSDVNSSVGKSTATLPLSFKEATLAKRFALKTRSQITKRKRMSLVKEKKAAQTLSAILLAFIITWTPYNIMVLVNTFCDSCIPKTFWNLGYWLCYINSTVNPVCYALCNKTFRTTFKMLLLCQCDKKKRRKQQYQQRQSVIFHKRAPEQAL

With `COc1ccc([C@H](Cc2c(Cl)c[n+]([O-])cc2Cl)OC(=O)c2ccc(CNC(C(=O)O[C@H]3CN4CCC3CC4)c3ccccc3)s2)cc1OC` (stereo in doubt; 92a) the microsomal CLint at 1 µM [1] was 213 µL/min/mg, the half-life at 5 µM [2] was 11 min and the IC50 [3] was 1 nM. The Activity [4] was “Non-Toxic”, the Activity [5] was 12.83 and the Ki [6] was 0.0631 nM. The Activity (Rattus norvegicus [7]) was 54%, the “inhibition (INH)” value (Cavia porcellus [8]) was 67% and the Activity [9] was 30.67. The pIC50 [10] was 8.8, the fraction unbound at 0.5 h, up to 2 µM [11] was 0.07 and the pIC50 [12] was 8.8. It also gave a solubility kinetic at 2 h [13] of 145 µM (≈ 105 µg/mL), an ED50 (Rattus norvegicus [14]) of 0.03 µmol/kg and a microsomal CLint at 1 µM [15] of 126 µL/min/mg. It also gave a Papp A→B at 1 h, 10 µM [16] of 1.6 ×10⁻⁶ cm/s, a half-life at 5 µM [17] of 9 min and a Ki [18] of 0.2 nM. For the same molecule, the “inhibition (INH)” value (Cavia porcellus [19]) was 74%, the fraction unbound at 0.5 h, up to 2 µM [20] was 0.086 and the pIC50 [21] was 9. The Activity [22] was “Non-Toxic” and the ED50 (Cavia porcellus [23]) was 0.7 nmol/kg.
